# Where two headings read alike, the source gives them in different places.
# Assays:
# [1] = test system: Human breast squamous carcinoma cells HCC1806; assay: Cell function assay (In-Cell Western, PAR/pADPr after MMS); assay type: cell-based
# Description: 2. Cell Function Assay (In-Cell Western)
# • 1) Human breast squamous carcinoma cells HCC1806 (ATCC) were seeded to the 384-well plate (Corning, #3764) at 20,000 cells/well, incubated for 24 h in a CO2 (5%) incubator at 37° C. to allow for complete adherence of the cells; • 2) 120 nL compounds or DMSO were added to the 384-well plate by Echo 550 (LABCYTE, #550) (final concentrations of compounds: 30000 nM, 10000 nM, 3000 nM, 1000 nM, 300 nM, 100 nM, 30 nM, 10 nM, 3 nM, 1 nM, 0 nM), and then the cells were incubated for 1 h in a CO2 (5%) incubator at 37° C.; • 3) 40 nL MMS (methyl mesylate, Sigma, #129925)(final concentration: 0.5 mM) was added to the plate by Echo 550, and the cells were treated for 1 h in a CO2 (5%) incubator at 37° C.
# PARG = PARG (Homo sapiens, UniProt Q86W56); assay: Biochemical assay (PARG, TFMU-ADPr substrate)
# [2] = HCC1806, 1 h, read-out: IC50 (nM) in cell function assay
# [3] = HCC1806, read-out: IC50 (nM) in cell function assay
# [4] = 4 nM PARG, 66.2 uM TFMU-ADPr, 3 min at room temperature
# [5] = HCC1806, In-Cell Western, MMS treatment, read-out: IC50 (nM) in cell function assay
# [6] = HCC1806, compound 1 h then 0.5 mM MMS 1 h, PAR/pADPr antibody, In-Cell Western, read-out: IC50 (nM) in cell function assay
# Sequence of PARG (Q86W56 whole entry): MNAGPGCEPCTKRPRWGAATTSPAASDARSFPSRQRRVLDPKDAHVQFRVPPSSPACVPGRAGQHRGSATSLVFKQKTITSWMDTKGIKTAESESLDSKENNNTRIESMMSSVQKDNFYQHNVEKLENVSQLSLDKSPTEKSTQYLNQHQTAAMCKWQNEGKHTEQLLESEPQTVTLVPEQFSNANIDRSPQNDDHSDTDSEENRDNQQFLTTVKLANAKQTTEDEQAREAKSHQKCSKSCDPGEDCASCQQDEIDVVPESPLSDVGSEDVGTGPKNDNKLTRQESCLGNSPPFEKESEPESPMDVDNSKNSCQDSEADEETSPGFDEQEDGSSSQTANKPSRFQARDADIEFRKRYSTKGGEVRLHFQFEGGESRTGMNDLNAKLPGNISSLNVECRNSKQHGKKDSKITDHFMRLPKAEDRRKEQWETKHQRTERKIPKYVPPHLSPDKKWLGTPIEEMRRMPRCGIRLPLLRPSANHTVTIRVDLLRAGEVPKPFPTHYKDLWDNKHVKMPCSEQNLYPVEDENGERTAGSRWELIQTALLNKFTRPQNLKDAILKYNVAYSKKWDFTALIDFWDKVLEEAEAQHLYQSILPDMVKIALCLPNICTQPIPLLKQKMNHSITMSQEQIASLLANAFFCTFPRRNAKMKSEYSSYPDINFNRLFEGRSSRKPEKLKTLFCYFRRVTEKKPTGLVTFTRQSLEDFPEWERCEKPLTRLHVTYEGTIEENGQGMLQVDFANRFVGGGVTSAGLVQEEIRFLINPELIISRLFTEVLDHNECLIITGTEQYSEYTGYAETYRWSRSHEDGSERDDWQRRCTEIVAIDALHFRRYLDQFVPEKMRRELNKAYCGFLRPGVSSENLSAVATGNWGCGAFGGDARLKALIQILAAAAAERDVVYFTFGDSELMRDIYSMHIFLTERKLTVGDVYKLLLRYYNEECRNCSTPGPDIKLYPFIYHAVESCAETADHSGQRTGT
SMILES,IC50 (PARG; [4]) [nM],"IC50 (PARG; PARG, TFMU-ADPr substrate) [nM]","IC50 [1, 5] [nM]","IC50 [1, 6] [nM]","IC50 [1, 2] [nM]","IC50 [1, 3] [nM]"
"[2H]C([2H])([2H])C1(NS(=O)(=O)c2cc(N3CCN(C(=O)C(C)C)CC3)c3cnc(-c4nnc(C(F)F)s4)n3c2)CC1 [Example 161, 3-(5-(difluoromethyl)-1,3,4-thiadiazol-2-yl)-8-(4-isobutyrylpiperazin-1-yl)-N-(1-(methyl-d3)cyclopropyl)imidazo[1,5-a]pyridine-6-sulfonamide]",< 100,0.88,,,< 100,1.02
"CC1(C(=O)N2C3CC2CN(c2cc(S(=O)(=O)NC4(C#N)CC4)cn4c(-c5nnc(C(F)F)s5)ncc24)C3)CC1 [Example 87, N-(1-cyanocyclopropyl)-3-(5-(difluoromethyl)-1,3,4-thiadiazol-2-yl)-8-(6-(1-methylcyclopropane-1-carbonyl)-3,6-diazabicyclo[3.1.1]heptan-3-yl)imidazo[1,5-a]pyridine-6-sulfonamide]",< 100,7.24,49.9,< 100,,
"N#CC1(NS(=O)(=O)c2cc(N3CCC4(CC3)COC4)c3cnc(-c4nnc(C(F)F)s4)n3c2)CC1 [Example 39, N-(1-cyanocyclopropyl)-3-(5-(difluoromethyl)-1,3,4-thiadiazol-2-yl)-8-(2-oxa-7-azaspiro[3.5]nonan-7-yl)imidazo[1,5-a]pyridine-6-sulfonamide]",< 100,2.72,13.2,< 100,,
"C[C@H]1CN(c2cc(S(=O)(=O)NC3(C#N)CC3)cn3c(-c4nnc(C(F)F)s4)ncc23)CCN1C(=O)C1(C)CC1 [Example 86, (S)-N-(1-cyanocyclopropyl)-3-(5-(difluoromethyl)-1,3,4-thiadiazol-2-yl)-8-(3-methyl-4-(1-methylcyclopropane-1-carbonyl)piperazin-1-yl)imidazo[1,5-a]pyridine-6-sulfonamide]",< 100,16.6,11.4,< 100,,
"CC(C)[C@@H]1CN(c2cc(S(=O)(=O)NC3(C#N)CC3)cn3c(-c4nnc(C(F)F)s4)ncc23)CCN1C(=O)C1(C)CC1 [Example 96, (R)-N-(1-cyanocyclopropyl)-3-(5-(difluoromethyl)-1,3,4-thiadiazol-2-yl)-8-(3-isopropyl-4-(1-methylcyclopropane-1-carbonyl)piperazin-1-yl)imidazo[1,5-a]pyridine-6-sulfonamide]",< 100,2.09,1.68,< 100,,
"CC(C)C(=O)N1CCN(c2cc(S(=O)(=O)NC3(C(F)F)COC3)cn3c(-c4nnc(C(F)F)s4)ncc23)CC1 [Example 149, 3-(5-(difluoromethyl)-1,3,4-thiadiazol-2-yl)-N-(3-(difluoromethyl)oxetan-3-yl)-8-(4-isobutyrylpiperazin-1-yl)imidazo[1,5-a]pyridine-6-sulfonamide]",< 100,6.23,57.7,< 100,,
"CC1(O)CC2(CCN(c3cc(S(=O)(=O)NC4(C#N)CC4)cn4c(-c5nnc(C(F)F)s5)ncc34)CC2)C1 [Example 53, N-(1-cyanocyclopropyl)-3-(5-(difluoromethyl)-1,3,4-thiadiazol-2-yl)-8-(2-hydroxy-2-methyl-7-azaspiro[3.5]nonan-7-yl)imidazo[1,5-a]pyridine-6-sulfonamide]",< 100,2.37,145,100 to 500,,
"CC(C)C(=O)N1CCN(c2cc(S(=O)(=O)NC3(C(F)F)CC3)cn3c(-c4nnc(C(F)F)s4)ncc23)CC1 [Example 33, 3-(5-(difluoromethyl)-1,3,4-thiadiazol-2-yl)-N-(1-(difluoromethyl)cyclopropyl)-8-(4-isobutyrylpiperazin-1-yl)imidazo[1,5-a]pyridine-6-sulfonamide]",< 100,6.52,155,100 to 500,,
"CC(C)C(=O)N1CCN(c2cc(S(=O)(=O)NC3(C#N)CC3)cc3c(-c4nnc(C(F)F)s4)cnn23)CC1 [Example 27, N-(1-cyanocyclopropyl)-3-(5-(difluoromethyl)-1,3,4-thiadiazol-2-yl)-7-(4-isobutyrylpiperazin-1-yl)pyrazolo[1,5-a]pyridine-5-sulfonamide]",< 100,4.98,,,100 to 500,76.3
"CC(C)C(=O)N1CCN(c2cc(S(=O)(=O)NC3(C#N)CC3)cn3c(-c4nnc(C(F)F)s4)ncc23)C[C@H]1C [Example 74, (R)-N-(1-cyanocyclopropyl)-3-(5-(difluoromethyl)-1,3,4-thiadiazol-2-yl)-8-(4-isobutyryl-3-methylpiperazin-1-yl)imidazo[1,5-a]pyridine-6-sulfonamide]",< 100,6.61,1.5,< 100,,
"N#CC1(NS(=O)(=O)c2cc(N3CCC(CO)CC3)c3cnc(-c4nnc(C(F)F)s4)n3c2)CC1 [Example 66, N-(1-cyanocyclopropyl)-3-(5-(difluoromethyl)-1,3,4-thiadiazol-2-yl)-8-(4-(hydroxymethyl)piperidin-1-yl)imidazo[1,5-a]pyridine-6-sulfonamide]",< 100,2.89,18.2,< 100,,

# The next lines start with results.
IC50 (PARG; [4]) [nM],"IC50 (PARG; PARG, TFMU-ADPr substrate) [nM]","IC50 [1, 5] [nM]","IC50 [1, 6] [nM]",SMILES,"IC50 [1, 2] [nM]","IC50 [1, 3] [nM]"
< 100,25.1,34.7,< 100,"N#CC1(NS(=O)(=O)c2cc(N3CCC(O)CC3)c3cnc(-c4nnc(C(F)F)s4)n3c2)CC1 [Example 68, N-(1-cyanocyclopropyl)-3-(5-(difluoromethyl)-1,3,4-thiadiazol-2-yl)-8-(4-hydroxypiperidin-1-yl)imidazo[1,5-a]pyridine-6-sulfonamide]",,
< 100,8.15,1540,> 1000,"C#CC1(NS(=O)(=O)c2cc(N3CCN(C(=O)C(C)C)CC3)c3nnc(-c4nnc(C(F)F)s4)n3c2)COC1 [Example 101, 3-(5-(difluoromethyl)-1,3,4-thiadiazol-2-yl)-N-(3-ethynyloxetan-3-yl)-8-(4-isobutyrylpiperazin-1-yl)-[1,2,4]triazolo[4,3-a]pyridine-6-sulfonamide]",,
< 100,0.76,2.01,< 100,"CC(C)C(=O)N1CCN(c2cc(S(=O)(=O)NC3(CF)CC3)cn3c(-c4nnc(C(F)F)s4)cnc23)CC1 [Example 14, 3-(5-(difluoromethyl)-1,3,4-thiadiazol-2-yl)-N-(1-(fluoromethyl)cyclopropyl)-8-(4-isobutyrylpiperazin-1-yl)imidazo[1,2-a]pyridine-6-sulfonamide]",,
< 100,5.01,7.52,< 100,"CC(C)C[C@@H]1CN(c2cc(S(=O)(=O)NC3(C#N)CC3)cn3c(-c4nnc(C(F)F)s4)ncc23)CCN1C(=O)C1(C)CC1 [Example 97, (R)-N-(1-cyanocyclopropyl)-3-(5-(difluoromethyl)-1,3,4-thiadiazol-2-yl)-8-(3-isobutyl-4-(1-methylcyclopropane-1-carbonyl)piperazin-1-yl)imidazo[1,5-a]pyridine-6-sulfonamide]",,
< 100,8.37,309,100 to 500,"N#CC1(NS(=O)(=O)c2cc(N3CCC(F)(F)CC3)c3cnc(-c4nnc(C(F)F)s4)n3c2)CC1 [Example 40, N-(1-cyanocyclopropyl)-3-(5-(difluoromethyl)-1,3,4-thiadiazol-2-yl)-8-(4,4-difluoropiperidin-1-yl)imidazo[1,5-a]pyridine-6-sulfonamide]",,
< 100,5.2,9,< 100,"O=S(=O)(NC1(CF)CC1)c1cc(N2CC3(COCCO3)C2)c2nnc(-c3nnc(C(F)F)s3)n2c1 [Example 113, 3-(5-(difluoromethyl)-1,3,4-thiadiazol-2-yl)-N-(1-(fluoromethyl)cyclopropyl)-8-(5,8-dioxa-2-azaspiro[3.5]nonan-2-yl)-[1,2,4]triazolo[4,3-a]pyridine-6-sulfonamide]",,
< 100,8.83,40.1,< 100,"N#CC1(NS(=O)(=O)c2cc(N3CCOCC3)c3cnc(-c4nnc(C(F)F)s4)n3c2)CC1 [Example 67, N-(1-cyanocyclopropyl)-3-(5-(difluoromethyl)-1,3,4-thiadiazol-2-yl)-8-morpholinoimidazo[1,5-a]pyridine-6-sulfonamide]",,
< 100,1.32,0.67,< 100,"C[C@@H]1CN(c2cc(S(=O)(=O)NC3(C)CC3)cn3c(-c4nnc(C(F)F)s4)ncc23)CCN1C(=O)C1(C)CC1 [Example 71, (R)-3-(5-(difluoromethyl)-1,3,4-thiadiazol-2-yl)-8-(3-methyl-4-(1-methylcyclopropane-1-carbonyl)piperazin-1-yl)-N-(1-methylcyclopropyl)imidazo[1,5-a]pyridine-6-sulfonamide]",,
< 100,8.69,6.77,< 100,"C[C@@H]1CN(c2cc(S(=O)(=O)NC3(C)COC3)cn3c(-c4nnc(C(F)F)s4)ncc23)CCN1C(=O)C1(C)CC1 [Example 88, (R)-3-(5-(difluoromethyl)-1,3,4-thiadiazol-2-yl)-8-(3-methyl-4-(1-methylcyclopropane-1-carbonyl)piperazin-1-yl)-N-(3-methyloxetan-3-yl)imidazo[1,5-a]pyridine-6-sulfonamide]",,
